Reference: ChEMBL document CHEMBL1201862, “PubChem BioAssay data set” (2004)
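These data come from cells grown in 96-well plates and exposed to compound for 48 hours at five concentrations. At the GI50, growth is halved.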 Calls of active or inactive are those of the source. Cut-off read from the data, not from the text of the source: active = GI50 up to about 1.1 µM and inactive = higher.

Assays:
Assay in all cases: NCI tumour cell line growth inhibition, 48 h
TK-10 = test system: TK-10
DU-145 = test system: DU-145
EKVX = test system: EKVX
SF-539 = test system: SF-539
HOP-62 = test system: HOP-62
Malme-3M = test system: Malme-3M
MOLT-4 = test system: MOLT-4
MDA-MB-435 = test system: MDA-MB-435
HT-29 = test system: HT-29
OVCAR-8 = test system: OVCAR-8
A549 = test system: A549
SNB-75 = test system: SNB-75
RPMI-8226 = test system: RPMI-8226
IGROV-1 = test system: IGROV-1
SK-OV-3 = test system: SK-OV-3
KM12 = test system: KM12
SR = test system: SR
MCF7 = test system: MCF7
RXF 393 = test system: RXF 393
SK-MEL-28 = test system: SK-MEL-28
NCI-H23 = test system: NCI-H23
PC-3 = test system: PC-3
CCRF-CEM = test system: CCRF-CEM
UACC-62 = test system: UACC-62
HCT-116 = test system: HCT-116
HCT-15 = test system: HCT-15
A498 = test system: A498
BT-549 = test system: BT-549
NCI/ADR-RES = test system: NCI/ADR-RES
NCI-H460 = test system: NCI-H460
MDA-N = test system: MDA-N
UACC-257 = test system: UACC-257
HL-60 = test system: HL-60
UO-31 = test system: UO-31
SF-295 = test system: SF-295
SN12C = test system: SN12C
K562 = test system: K562
COLO 205 = test system: COLO 205
SNB-19 = test system: SNB-19
ACHN = test system: ACHN
LOX IMVI = test system: LOX IMVI
OVCAR-5 = test system: OVCAR-5
OVCAR-4 = test system: OVCAR-4
HCC 2998 = test system: HCC 2998
U-251 = test system: U-251
CAKI-1 = test system: CAKI-1
OVCAR-3 = test system: OVCAR-3
786-0 = test system: 786-0
SW-620 = test system: SW-620
MDA-MB-231 = test system: MDA-MB-231
SF-268 = test system: SF-268
SK-MEL-5 = test system: SK-MEL-5
Hs-578T = test system: Hs-578T
M14 = test system: M14
NCI-H226 = test system: NCI-H226
NCI-H522 = test system: NCI-H522
HOP-92 = test system: HOP-92
SK-MEL-2 = test system: SK-MEL-2

Measured: GI50

CCOC(=O)CC(=O)NC1CC2CCC1(C)C2(C)C (configuration not stated)
inactive: TK-10 > 100 µM | DU-145 > 100 µM | EKVX > 100 µM | SF-539 > 100 µM | HOP-62 > 100 µM | Malme-3M > 100 µM | MOLT-4 > 100 µM | MDA-MB-435 > 100 µM | HT-29 > 100 µM | OVCAR-8 > 100 µM | A549 > 100 µM | SNB-75 > 100 µM | RPMI-8226 > 100 µM | IGROV-1 > 100 µM | SK-OV-3 > 100 µM | KM12 > 100 µM | SR > 100 µM | MCF7 > 100 µM | RXF 393 > 100 µM | SK-MEL-28 > 100 µM | NCI-H23 > 100 µM | PC-3 > 100 µM | CCRF-CEM > 100 µM | UACC-62 > 100 µM | HCT-116 > 100 µM | A498 > 100 µM | BT-549 > 100 µM | NCI/ADR-RES > 100 µM | NCI-H460 > 100 µM | MDA-N > 100 µM | UACC-257 > 100 µM | HL-60 > 100 µM | UO-31 > 100 µM | SF-295 > 100 µM | SN12C > 100 µM | K562 > 100 µM | COLO 205 > 100 µM | SNB-19 > 100 µM | ACHN > 100 µM | LOX IMVI > 100 µM | OVCAR-5 > 100 µM | OVCAR-4 > 100 µM | HCC 2998 > 100 µM | U-251 > 100 µM | CAKI-1 > 100 µM | OVCAR-3 > 100 µM | 786-0 > 100 µM | SW-620 > 100 µM | MDA-MB-231 > 100 µM | SF-268 > 100 µM | SK-MEL-5 > 100 µM | Hs-578T > 100 µM | M14 > 100 µM | NCI-H226 > 100 µM
> 100 µM: HCT-15

N#CC1(C#N)NC(c2ccsc2)C(C#N)(C#N)NC1c1ccsc1 (configuration not stated)
> 100 µM: HCT-15
inactive: TK-10 > 100 µM | NCI-H522 > 100 µM | DU-145 > 100 µM | EKVX > 100 µM | SF-539 > 100 µM | HOP-62 > 100 µM | Malme-3M > 100 µM | MOLT-4 > 100 µM | MDA-MB-435 > 100 µM | HT-29 > 100 µM | OVCAR-8 > 100 µM | A549 > 100 µM | SNB-75 > 100 µM | RPMI-8226 > 100 µM | IGROV-1 > 100 µM | SK-OV-3 > 100 µM | KM12 > 100 µM | SR > 100 µM | MCF7 > 100 µM | SK-MEL-28 > 100 µM | NCI-H23 > 100 µM | HOP-92 > 100 µM | PC-3 > 100 µM | CCRF-CEM 80.2 µM | UACC-62 > 100 µM | HCT-116 > 100 µM | A498 > 100 µM | BT-549 > 100 µM | NCI/ADR-RES > 100 µM | NCI-H460 > 100 µM | MDA-N > 100 µM | UACC-257 > 100 µM | HL-60 > 100 µM | UO-31 > 100 µM | SF-295 > 100 µM | SN12C > 100 µM | K562 > 100 µM | COLO 205 > 100 µM | SNB-19 > 100 µM | ACHN > 100 µM | LOX IMVI > 100 µM | OVCAR-5 > 100 µM | SK-MEL-2 > 100 µM | OVCAR-4 > 100 µM | HCC 2998 > 100 µM | U-251 > 100 µM | CAKI-1 > 100 µM | OVCAR-3 > 100 µM | 786-0 > 100 µM | SW-620 > 100 µM | MDA-MB-231 > 100 µM | SF-268 > 100 µM | SK-MEL-5 > 100 µM | Hs-578T > 100 µM | M14 > 100 µM | NCI-H226 > 100 µM
